Test: Human HepG2 cell viability assay in 384 well format
Assay type: toxicity, cell-based
Design: dose 125 nL, time 70.5 hour; cytotoxicity at 70.5 h: concentration not given beside the values
Details: HepG2 cells, read-out: Inhibition

| SMILES | cytotoxicity at 70.5 h [%] |
| --- | --- |
| CC(C)CNC(=O)CNC(=O)NCC(O)c1ccc2ccccc2c1 (configuration not stated) | -3.3 |
| Cc1cc(CN(C)C(=O)c2ccnc(N(C)C)c2)no1 | -7.52 |
| O=C(c1ccccn1)N1CCN(c2ccc(-c3cccnc3)nn2)CC1 | -11.4 |
| Cc1ccc2c(c1)CCC2NCc1c(C)nn(C)c1N1CCOCC1 (configuration not stated) | -1.48 |
| CC(C)N1CCC(CNCc2c[nH]nc2C(C)(C)C)C1 (configuration not stated) | -0.871 |
| O=C(NC1CCCCC1)c1ccc(COCC(F)(F)F)o1 | 19.8 |
| CCNC(=O)N1CC2=CC(C)(C)COc3ccc(OC)c(c32)C1 | -6.22 |
| Cc1cnn(CC2CCCCN2CCC(=O)Nc2cc(C)on2)c1 (configuration not stated) | 4.06 |
| CC(=O)N1CCN(c2ccccc2CNc2ccc3[nH]ncc3c2)CC1 | 0.892 |
| CC(NC(=O)CCC(=O)c1cccs1)c1nnc2n1CCC2 (configuration not stated) | -3.09 |
| CS(=O)(=O)N1CCN(c2ccnc(N3CCCCC3)n2)CC1 | -6.15 |
| CN(Cc1nnc(C2CC2)n1C)C1CCN(CCc2cccs2)C1 (configuration not stated) | -6.98 |
| Cc1nn(C)c(N(C)C)c1CNCCC(=O)NC1CCCCC1 | -0.221 |
| Cc1nc(C2(NCc3cc(C#N)ccc3F)CCCCC2)no1 | -17.2 |
| c1cncc(CN2CCC(NCCc3ccc4c(c3)CCO4)CC2)c1 | 4.11 |
| COc1ccc(CCNC(=O)C2CCC(Cn3cnnn3)CC2)cc1 (configuration not stated) | -2.47 |
| O=C(NC1CC1)c1cc(C(F)(F)F)cc(C(=O)NC2CC2)n1 | 23 |
| COc1ccc(C(=O)COc2coc(CN3CCSCC3)cc2=O)cc1 | -19.9 |
| CCc1nccn1C1CCCN(C(=O)c2cnc3ccccc3n2)C1 (configuration not stated) | -2.77 |
| Cc1ccc(CN2CCN(c3ncccc3Cl)CC2CCO)cc1 (configuration not stated) | -0.712 |
| CN1CCC(c2cncc(Cl)n2)CC1 | -5.05 |

| SMILES | cytotoxicity at 70.5 h [%] |
| --- | --- |
| CCCN1CCCC2(CCN(S(=O)(=O)N3CCC(OC)CC3)C2)C1=O (configuration not stated) | -1.84 |
| Cc1cccc(CN2CCC3(CCN(c4cccnc4)C3=O)C2)n1 (configuration not stated) | 2.95 |
| O=S(=O)(NCc1ccnc(-n2ccnc2)c1)c1cncc(F)c1 | -1.94 |
| COCCS(=O)(=O)NC(C)c1ccccc1Br (configuration not stated) | -0.0652 |
| O=C(NC1CCN(c2ncccn2)CC1)c1cc2c(cc1O)CCCC2 | 6.37 |
| CC(C)CCN(C)C(=O)c1nc(S(C)(=O)=O)n2ccccc12 | 4.51 |
| Cc1csc(N2CCCN(C(=O)C3(C#N)CCCCC3)CC2)n1 | -9.35 |
| CCN(CC)C(=O)C1CCN(C(=O)Nc2cccnc2OC)CC1 | 34.4 |
| CNc1nc2c(s1)C(c1cccc(F)c1F)CC(=O)N2 (configuration not stated) | -11.9 |
| c1c(CN2CCCC2)nc2n1CCNC2 | 9.22 |
| Cc1ccoc1C(=O)N1CCCN(Cc2cnn(C)c2)CC1 | -17.4 |
| O=S1(=O)CCC(CNc2cc(-c3ccccc3)nc3ccnn23)C1 (configuration not stated) | -9.95 |
| CCc1nc(CN2CCCN(Cc3cnn(C)c3)CC2)no1 | 0.0385 |
| CC(C)c1noc(CS(=O)(=O)Cc2nc(C(C)C)no2)n1 | -7.1 |
| CCS(=O)(=O)N1CCC2(CC1)CN(c1cncnc1)C(=O)CO2 | -15.9 |
| Cc1noc(C)c1CN1CC[C@@H]2O[C@H](COCC3CC3)CC[C@@H]21 | -4.64 |
| Cc1c(C)n(Cc2ccncc2)c2nc3c(c(N)c12)CCCCCC3 | 30.2 |
| O=C(NCCC1CN(C2CCCC2)CCO1)c1cc(=O)[nH]c(=O)[nH]1 (configuration not stated) | -11.6 |
| Cc1ccnc(SCC(=O)Nc2csc3nc(=O)c(C)nn23)n1 | 7.67 |
| Cc1ccc2oc(C(=O)N3CCCC(n4nc(C)nc4C)C3)cc2n1 (configuration not stated) | -9.11 |
| CCn1nnc2c1CCN(S(C)(=O)=O)C2COCc1ccccc1 (configuration not stated) | 2.15 |

| SMILES | cytotoxicity at 70.5 h [%] |
| --- | --- |
| O[C@@H]1CCN(CC2CCOC2)[C@H]1Cc1cccnc1 (some centres not stated) | -12.1 |
| CN(C)C(=O)Cn1c(C2CC2)c(CN2CCC(O)CC2)c2cccnc21 | 12.5 |
| O=C(NCCO)C1CN(c2cncnc2)CCO1 (configuration not stated) | -8.3 |
| O=C(C1CC=CC1)N1Cc2nccn2CC(CN2CCCC2)C1 (configuration not stated) | -4.01 |
| O=C(CC1CCN(CCc2ccccc2)CC1)NC1CCOCC1 | -1.43 |
| CN(Cc1ccco1)c1ccc(C(=O)NCCCc2ccccn2)cn1 | 0.076 |
| CCc1ocnc1C(=O)N1CCOC(CCCC(C)C)C1 (configuration not stated) | -12.3 |
| CN(C)C(=O)C1CCN(Cn2nc(-c3ccc(F)cc3)oc2=O)CC1 | -5.92 |
| COc1cccc(S(=O)(=O)Cc2cc(C)on2)c1 | -3.06 |
| Cc1[nH]c(C2(N)CCCCC2)nc(=O)c1C | -4.13 |
| CC(=O)Nn1c(C)cc(CN2CCCN(Cc3ccncc3)CC2)c1C | -0.666 |
| COc1ccsc1C(=O)NCCN1CCOCC1 | -7.25 |
| Cn1cccc1CNC(=O)CCCc1nnc2ccccn12 | -3.22 |
| Fc1cccc(C2CCCCN2Cc2nc(-c3cnccn3)no2)c1 (configuration not stated) | -1.63 |
| Cc1nccn1C1CCCN(C(=O)Cn2ccc(=O)n(C)c2=O)C1 (configuration not stated) | -14.6 |
| COCC(=O)N1CCC(=O)N(C2CCCC2)Cc2ccccc21 | 6.82 |
| CCc1nnc(Sc2nn3cc(C)nc3s2)n1C | -2.38 |
| CN(CC(=O)NCC1CCCCC1)S(=O)(=O)c1cccnc1 | -3.39 |
| CCC(C)(C)NC(=O)CN1C=Nc2ccccc2S1(=O)=O | -5.89 |
| CS(=O)(=O)N[C@@H]1CN(C(=O)c2ccccn2)[C@@H]2CCCO[C@@H]21 | -5.15 |
| COCCN1CCO[C@H]2CN(Cc3cccc(C)n3)C[C@H]21 | -5.32 |

| SMILES | cytotoxicity at 70.5 h [%] |
| --- | --- |
| O=C(NC1CCCCC1)C1CCCN(C(=O)Nc2ccccn2)C1 (configuration not stated) | -15.3 |
| CN(CC(=O)N1CCCC1c1noc(C2CC2)n1)S(C)(=O)=O (configuration not stated) | -12.3 |
| O=S(=O)(c1cc(F)ccc1N1CC(n2cccn2)C1)C(F)(F)F | -0.145 |
| COc1ccc(C2=CCN(C(=O)CN(C)Cc3ccco3)CC2)cc1 | -11.2 |
| CN1CC(C(=O)NCc2ccc(OCc3cccnc3)cc2)CC1=O (configuration not stated) | 12.9 |
| Cc1nccn1C1CCCN(C(=O)C2=NN(C)C(=O)CC2)C1 (configuration not stated) | 9.33 |
| CSc1ccccc1-n1ccnc1-c1cn(C2CCNCC2)nn1 | 2.69 |
| Cc1nc(N2CCCC2)nc2c1CCN(Cc1ccco1)CC2 | -16.4 |
| Cc1noc(C)c1CN1CCC(c2nc3cc(Cl)ccc3o2)CC1 | -14.6 |
| CN1CCN([C@@H]2CN(C(=O)Cc3ccsc3)[C@@H]3CCCO[C@H]23)CC1 | -4.38 |
| Cc1nnc(CN(Cc2ccccc2Cl)C2CCCC2)o1 | -5.33 |
| CC(C)CO[C@H]1CN(S(=O)(=O)c2cn(C)cn2)[C@@H]2CCCO[C@H]12 | 18 |
| Cc1cccc2cc(CN3CCC(N4CCOCC4)CC3)c(=O)[nH]c12 | -5.31 |
| Cc1cc(C)nc(C2CCN(C(=O)CCn3ncc4ccccc43)C2)n1 (configuration not stated) | 2.78 |
| Cc1nc(NC(=O)C(C)N2CCN(c3cnccn3)CC2)sc1C (configuration not stated) | -4.32 |
| NC(=O)c1cc2c(nc1-c1ccc3c(c1)CCO3)CCC2 | -5.32 |
| Cn1nc(COc2cccnc2)c2c1CCN(c1ncccn1)C2 | -14.2 |
| Cc1cc(-c2cnc(N3CCNC(=O)C3)nc2-c2ccncc2)on1 | 7.7 |
| O=C(NC1CCS(=O)(=O)C1)N1CCN(c2cnccn2)CC1 (configuration not stated) | -7.1 |

Reference: ChEMBL document CHEMBL3507680, “University of Dundee, Gates Library screen for HepG2 cell viability”
